Measurements from patent publication US9234018B2, “Compositions and methods for the treatment of VprBP-related cancers” (University of Southern California, priority 2013, dated 2016).
pIC50: −log10 of the molar value.

Tests used:
[1] = biological target: PRKCD (Homo sapiens, UniProt Q05655); assay: Kinase selectivity panel; format: biochemical
[2] = biological target: BUB1 (Homo sapiens, UniProt O43683); assay: Kinase selectivity panel; format: biochemical
[3] = biological target: RSK2 (Homo sapiens, UniProt P51812); assay: Kinase selectivity panel; format: biochemical
[4] = biological target: PKN2 (Homo sapiens, UniProt Q16513); assay: Kinase selectivity panel; format: biochemical
[5] = biological target: PLK1 (Homo sapiens, UniProt P53350); assay: Kinase selectivity panel; format: biochemical
[6] = biological target: CDK9 (Homo sapiens, UniProt P50750); assay: Kinase selectivity panel; format: biochemical
[7] = biological target: STK25 (Homo sapiens, UniProt O00506); assay: Kinase selectivity panel; format: biochemical
[8] = biological target: ATM (Homo sapiens, UniProt Q13315); assay: Kinase selectivity panel; format: biochemical
Sequence of ATM (Q13315 whole entry): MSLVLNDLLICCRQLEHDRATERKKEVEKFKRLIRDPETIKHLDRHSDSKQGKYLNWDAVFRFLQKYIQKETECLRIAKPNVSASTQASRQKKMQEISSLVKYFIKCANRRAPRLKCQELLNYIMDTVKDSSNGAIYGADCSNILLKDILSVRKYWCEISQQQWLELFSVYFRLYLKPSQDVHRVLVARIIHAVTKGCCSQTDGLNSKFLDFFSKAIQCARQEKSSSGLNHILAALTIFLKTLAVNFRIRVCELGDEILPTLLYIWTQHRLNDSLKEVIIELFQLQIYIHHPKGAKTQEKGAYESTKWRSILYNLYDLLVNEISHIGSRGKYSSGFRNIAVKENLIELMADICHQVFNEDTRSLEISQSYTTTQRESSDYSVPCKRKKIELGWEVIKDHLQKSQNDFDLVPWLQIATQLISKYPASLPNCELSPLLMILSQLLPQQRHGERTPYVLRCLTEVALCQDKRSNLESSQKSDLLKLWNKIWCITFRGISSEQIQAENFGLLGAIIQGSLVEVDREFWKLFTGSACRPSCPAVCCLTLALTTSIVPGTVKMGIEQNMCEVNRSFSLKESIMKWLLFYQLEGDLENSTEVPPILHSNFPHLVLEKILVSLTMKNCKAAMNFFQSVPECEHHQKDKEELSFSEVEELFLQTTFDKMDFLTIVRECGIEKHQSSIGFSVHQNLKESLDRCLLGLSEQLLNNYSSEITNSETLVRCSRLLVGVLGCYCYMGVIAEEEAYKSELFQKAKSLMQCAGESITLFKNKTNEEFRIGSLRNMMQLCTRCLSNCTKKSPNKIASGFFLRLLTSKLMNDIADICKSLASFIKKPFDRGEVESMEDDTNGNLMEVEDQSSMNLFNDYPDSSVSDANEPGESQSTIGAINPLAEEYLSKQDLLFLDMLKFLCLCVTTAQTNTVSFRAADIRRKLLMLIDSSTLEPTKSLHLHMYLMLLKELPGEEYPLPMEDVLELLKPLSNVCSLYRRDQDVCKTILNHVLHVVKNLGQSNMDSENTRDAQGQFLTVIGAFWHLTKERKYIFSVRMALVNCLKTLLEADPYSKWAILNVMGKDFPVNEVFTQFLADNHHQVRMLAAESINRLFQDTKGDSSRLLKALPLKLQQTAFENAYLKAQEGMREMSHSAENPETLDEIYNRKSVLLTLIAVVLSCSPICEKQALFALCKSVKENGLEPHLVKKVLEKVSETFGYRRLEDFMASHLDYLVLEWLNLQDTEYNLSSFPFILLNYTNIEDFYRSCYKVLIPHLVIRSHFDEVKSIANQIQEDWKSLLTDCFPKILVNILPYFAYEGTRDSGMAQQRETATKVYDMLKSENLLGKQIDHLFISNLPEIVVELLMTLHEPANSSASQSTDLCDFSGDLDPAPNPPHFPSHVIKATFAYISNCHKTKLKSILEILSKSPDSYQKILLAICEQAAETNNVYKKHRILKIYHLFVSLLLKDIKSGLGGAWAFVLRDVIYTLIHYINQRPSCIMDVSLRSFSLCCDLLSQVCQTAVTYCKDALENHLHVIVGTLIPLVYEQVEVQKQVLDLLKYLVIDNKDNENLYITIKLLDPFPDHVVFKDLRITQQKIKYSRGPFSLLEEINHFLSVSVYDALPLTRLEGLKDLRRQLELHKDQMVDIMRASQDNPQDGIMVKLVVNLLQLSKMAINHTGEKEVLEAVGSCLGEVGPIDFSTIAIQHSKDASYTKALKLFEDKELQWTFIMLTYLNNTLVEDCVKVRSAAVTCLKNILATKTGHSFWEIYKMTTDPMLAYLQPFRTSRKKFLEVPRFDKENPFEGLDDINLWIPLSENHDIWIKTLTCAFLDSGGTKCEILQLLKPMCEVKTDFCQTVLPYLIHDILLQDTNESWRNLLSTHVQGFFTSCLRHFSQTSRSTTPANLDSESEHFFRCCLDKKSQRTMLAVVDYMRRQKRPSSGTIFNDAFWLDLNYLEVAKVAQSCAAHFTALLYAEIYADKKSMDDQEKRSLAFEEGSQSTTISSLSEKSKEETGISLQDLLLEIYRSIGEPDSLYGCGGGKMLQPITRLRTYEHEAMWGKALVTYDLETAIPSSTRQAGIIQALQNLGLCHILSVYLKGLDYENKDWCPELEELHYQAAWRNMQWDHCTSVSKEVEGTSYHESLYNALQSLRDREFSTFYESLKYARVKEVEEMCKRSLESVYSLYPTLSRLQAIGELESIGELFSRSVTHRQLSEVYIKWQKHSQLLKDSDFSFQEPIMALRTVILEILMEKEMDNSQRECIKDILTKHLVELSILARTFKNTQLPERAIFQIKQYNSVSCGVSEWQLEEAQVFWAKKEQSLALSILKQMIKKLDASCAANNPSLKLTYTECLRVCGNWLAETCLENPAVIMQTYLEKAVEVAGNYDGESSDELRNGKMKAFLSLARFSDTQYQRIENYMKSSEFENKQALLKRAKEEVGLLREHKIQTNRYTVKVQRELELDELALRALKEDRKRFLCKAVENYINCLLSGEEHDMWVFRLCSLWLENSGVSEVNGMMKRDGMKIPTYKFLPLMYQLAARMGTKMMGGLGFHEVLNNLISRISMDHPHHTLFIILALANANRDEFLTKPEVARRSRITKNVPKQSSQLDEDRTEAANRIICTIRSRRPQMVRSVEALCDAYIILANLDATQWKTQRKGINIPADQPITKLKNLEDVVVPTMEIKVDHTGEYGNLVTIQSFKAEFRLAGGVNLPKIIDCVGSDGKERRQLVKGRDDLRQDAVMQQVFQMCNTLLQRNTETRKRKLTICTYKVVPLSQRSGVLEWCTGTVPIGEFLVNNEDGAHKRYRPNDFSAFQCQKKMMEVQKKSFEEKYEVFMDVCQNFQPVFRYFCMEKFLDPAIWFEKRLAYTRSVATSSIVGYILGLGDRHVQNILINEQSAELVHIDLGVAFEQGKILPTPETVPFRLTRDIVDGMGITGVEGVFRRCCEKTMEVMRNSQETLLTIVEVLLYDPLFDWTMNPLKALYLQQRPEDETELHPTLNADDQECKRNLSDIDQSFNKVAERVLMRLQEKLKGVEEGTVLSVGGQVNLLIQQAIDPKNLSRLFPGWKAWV

[9] = biological target: CDK2 (Homo sapiens, UniProt P24941); assay: Kinase selectivity panel; format: biochemical
[10] = biological target: CHK2 (Homo sapiens, UniProt O96017); assay: Kinase selectivity panel; format: biochemical
[11] = biological target: PLK2 (Homo sapiens, UniProt Q9NYY3); assay: Kinase selectivity panel; format: biochemical
[12] = biological target: RSK3 (Homo sapiens, UniProt Q15349); assay: Kinase selectivity panel; format: biochemical
Sequence of RSK3 (Q15349 whole entry): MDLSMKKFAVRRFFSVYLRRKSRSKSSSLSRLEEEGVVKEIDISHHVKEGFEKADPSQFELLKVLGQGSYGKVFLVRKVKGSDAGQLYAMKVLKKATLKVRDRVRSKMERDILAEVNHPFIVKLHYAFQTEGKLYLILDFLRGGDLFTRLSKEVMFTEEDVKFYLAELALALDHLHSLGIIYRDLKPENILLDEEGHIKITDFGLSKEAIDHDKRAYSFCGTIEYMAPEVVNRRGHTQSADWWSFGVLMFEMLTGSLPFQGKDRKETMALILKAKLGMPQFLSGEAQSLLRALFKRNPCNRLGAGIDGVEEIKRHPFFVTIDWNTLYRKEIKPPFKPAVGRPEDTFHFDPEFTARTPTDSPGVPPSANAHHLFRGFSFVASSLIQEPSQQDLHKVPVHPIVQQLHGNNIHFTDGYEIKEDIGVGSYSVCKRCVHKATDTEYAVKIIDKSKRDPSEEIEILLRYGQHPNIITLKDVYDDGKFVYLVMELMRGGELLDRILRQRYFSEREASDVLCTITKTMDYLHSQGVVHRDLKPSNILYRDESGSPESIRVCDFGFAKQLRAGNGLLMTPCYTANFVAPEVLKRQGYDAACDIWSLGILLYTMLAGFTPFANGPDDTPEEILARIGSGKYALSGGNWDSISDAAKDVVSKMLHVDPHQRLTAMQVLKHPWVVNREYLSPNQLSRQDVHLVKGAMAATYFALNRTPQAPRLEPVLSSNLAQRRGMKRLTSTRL

[13] = test system: DU145 cells; assay: Cell proliferation (MTT) and soft agar colony formation; format: cell-based, human; details: MTT 72 h and soft agar colonies
Procedure: Cell proliferation was assessed by the 3-(4,5-dimethylthiazol-2-yl)-2,5-diphenyltetrazolium bromide (MTT) assay as previously described (Kim, K. et al. (2012) Mol. Cell Biol. 32:783-796). To evaluate IC50 of compound B32B3 and B20H6, DU145 cells were treated with various concentrations (0.001, 0.005, 0.01, 0.05, 0.1, 1, 5, 10, and 20 μM) of compounds for 72 h and viability was measured by MTT assays. For soft agar colony formation assays, DU145 cells were treated with B32B3 (0.5, 1, and 3 μM). Cells were suspended in semisolid medium (DMEM 10% FBS plus 0.3% ultra pure noble agar) at concentrations of 2×10^5 cells/ml, added over a layer of 0.6% agar in RPMI on 35 mm plate and incubated for an additional 21 days. The colonies in each well were stained with 0.005% crystal violet in 20% ethanol, counted and photographed. All assays were run in triplicate, and results presented are the average of three individual experiments.

[14] = biological target: EEF2K (Homo sapiens, UniProt O00418); assay: Kinase selectivity panel; format: biochemical
[15] = biological target: DYRK1 (Homo sapiens, UniProt Q13627); assay: Kinase selectivity panel; format: biochemical
[16] = biological target: CDK18 (Homo sapiens, UniProt Q07002); assay: Kinase selectivity panel; format: biochemical
Sequence of CDK18 (Q07002 whole entry): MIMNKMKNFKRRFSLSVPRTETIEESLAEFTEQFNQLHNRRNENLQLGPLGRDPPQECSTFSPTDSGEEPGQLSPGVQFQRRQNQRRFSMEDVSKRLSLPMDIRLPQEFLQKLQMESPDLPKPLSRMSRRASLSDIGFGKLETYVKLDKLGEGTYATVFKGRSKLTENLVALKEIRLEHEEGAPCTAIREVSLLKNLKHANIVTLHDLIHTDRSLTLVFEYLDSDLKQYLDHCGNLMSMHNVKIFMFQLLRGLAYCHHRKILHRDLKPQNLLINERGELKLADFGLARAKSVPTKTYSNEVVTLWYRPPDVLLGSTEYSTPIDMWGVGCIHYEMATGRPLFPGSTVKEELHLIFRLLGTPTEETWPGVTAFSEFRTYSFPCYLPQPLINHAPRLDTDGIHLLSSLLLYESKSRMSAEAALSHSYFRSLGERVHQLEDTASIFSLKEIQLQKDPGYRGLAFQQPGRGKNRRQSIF

[17] = biological target: GSK3β (Homo sapiens, UniProt P49841); assay: Kinase selectivity panel; format: biochemical
[18] = B32B3 stability assessment in plasma; format: in vitro ADME; details: mouse plasma
Procedure: To assess the metabolic stability of B32B3 in mouse, dog, monkey, and human plasma, the compound was spiked into blank plasma to a concentration of 10 μM. At 0, 15, 30, 60, 90, and 120 min time points, a 30 μl aliquot was collected and mixed with 270 μl acetonitrile solution for protein precipitation. After centrifugation, the supernatant was analyzed by LC-MS/MS. In vitro half-life of B32B3 in plasma was calculated using the slope (k) of the log-linear regression from the concentration remaining parent compound versus time. T1/2=−ln 2/k Mouse Pharmacokinetics of B32B3

[19] = biological target: STK33 (Homo sapiens, UniProt Q9BYT3); assay: Kinase selectivity panel; format: biochemical
[20] = biological target: AURKB (Homo sapiens, UniProt Q96GD4); assay: Kinase selectivity panel; format: biochemical
[21] = biological target: LCK (Homo sapiens, UniProt P06239); assay: Kinase selectivity panel; format: biochemical
[22] = biological target: DNAPK (Homo sapiens, UniProt P78527); assay: Kinase selectivity panel; format: biochemical
[23] = biological target: AKT1 (Homo sapiens, UniProt P31749); assay: Kinase selectivity panel; format: biochemical
[24] = test system: H2AT120p in DU145 cells; assay: Cellular H2AT120p by western blotting and immunostaining; format: cell-based, human
Procedure: To this end, Applicants' inhouse small-molecule library of 5,000 compounds was screened. […] To evaluate their cellular effects, DU145 cells were treated with the compounds in the concentration range of […] for 24 hr. […] Thus, although Applicants cannot exclude the possibility that other kinases that were not included in the selectivity screen might be affected, B32B3 can be defined as a highly specific VprBP inhibitor at present.
The levels of VprBP and H2AT120p in tumors tissues were determined in FDA human tumor organ tissue microarray, which includes 16 types of organ cancer with matched or unmatched adjacent normal tissue (US Biomax, Inc). The formalin-fixed, paraffin-embedded sections were blocked by treating with blocking reagent (50 mM Tris-HCl, pH 7.5, 150 mM NaCl, 0.3% Triton X-100, and 5% normal goat serum) for 30 min at room temperature and incubated with VprBP and H2AT120p antibodies at 4° C. overnight. Immunodetection was performed using ABC reagent (Vectorstain). DAB (Vector Lab) was used for color development and hematoxylin (Sigma) was used for counterstaining. The intensity and distribution patterns of staining were evaluated by semiquantitative immunohistochemical assessment. The intensity of staining was graded from − to +++ (−, no staining; +, weak staining; ++, moderate staining; and +++, strong staining) The distribution of staining was classified from 0 to 3 (0, 0-20%; 1, 21-50%; 2, 51-80%; 3, 81-100%). For immunofluorescence of DU145 cells, cells were treated with DMSO or B32B3 (0.5 μM) for 24 h and fixed with 4% paraformaldehyde for 15 min. The corresponding samples were permeabilized with 0.3% Triton X-100 for 15 min and immunostained with H2AT120p antibody.

Sequence of PRKCD (Q05655 whole entry): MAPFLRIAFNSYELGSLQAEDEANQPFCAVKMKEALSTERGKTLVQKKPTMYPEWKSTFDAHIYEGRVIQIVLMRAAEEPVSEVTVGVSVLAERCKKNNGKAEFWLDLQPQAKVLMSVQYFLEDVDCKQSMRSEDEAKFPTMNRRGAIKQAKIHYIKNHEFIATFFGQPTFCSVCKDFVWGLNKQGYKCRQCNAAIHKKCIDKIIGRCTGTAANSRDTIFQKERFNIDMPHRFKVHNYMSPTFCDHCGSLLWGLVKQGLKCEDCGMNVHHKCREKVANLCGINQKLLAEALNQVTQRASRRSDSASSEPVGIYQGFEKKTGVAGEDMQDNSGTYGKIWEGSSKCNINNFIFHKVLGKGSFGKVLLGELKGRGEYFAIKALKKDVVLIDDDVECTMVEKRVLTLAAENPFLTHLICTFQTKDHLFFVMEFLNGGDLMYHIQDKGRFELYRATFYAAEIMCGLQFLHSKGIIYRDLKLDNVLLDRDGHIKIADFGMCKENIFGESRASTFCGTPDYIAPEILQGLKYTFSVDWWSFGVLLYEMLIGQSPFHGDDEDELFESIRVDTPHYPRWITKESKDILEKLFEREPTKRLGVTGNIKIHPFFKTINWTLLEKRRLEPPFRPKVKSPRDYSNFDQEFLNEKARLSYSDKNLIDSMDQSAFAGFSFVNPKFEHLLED

With c1ccc2c(CNNc3ncnc4sc5c(c34)CCCC5)c[nH]c2c1 [B32B3] the pIC50 [1] was less than 5.00, the pIC50 [2] was less than 5.00 and the pIC50 [3] was 5.07. For the same molecule, the pIC50 [4] was less than 5.00, the pIC50 [5] was less than 5.00 and the pIC50 [6] was less than 5.00. The pIC50 [7] was less than 5.00, the pIC50 [8] was less than 5.00 and the pIC50 [9] was less than 5.00. For the same molecule, the pIC50 [10] was less than 5.00, the pIC50 [11] was less than 5.00 and the pIC50 [12] was less than 5.00. For the same molecule, the “Effect on cell proliferation / cell growth” value [13] was “inhibition of cell proliferation”, the pIC50 [14] was less than 5.00 and the pIC50 [15] was less than 5.00. The pIC50 [16] was less than 5.00, the pIC50 [17] was less than 5.00 and the half-life at 10 μM [18] was roughly 7 h. The pIC50 [19] was less than 5.00, the pIC50 [20] was less than 5.00 and the pIC50 [21] was less than 5.00. The pIC50 [22] was less than 5.00, the pIC50 [23] was less than 5.00 and the “Potency in cells overexpressing VprBP” value ([24]; DU145 cells overexpressing VprBP, 24 h) was “considerably less potent”. The pIC50 ([24]; Homo sapiens, DU-145, DU145 cells, 24 hr, 0-5 mM, read-out: IC50 for inhibition of H2AT120p) was 6.30 and the “Decrease in IC50 (H2AT120p) upon knockdown of VprBP” value ([24]; VprBP-knockdown DU145 cells, 24 h) was “circa 2 fold”.
